The structures appear in SMILES notation.

One may read the IC50 as the point on the concentration scale where inhibition reaches its midpoint.

The first assay deals with T1, IRAK4 (Homo sapiens, UniProt Q9NWZ3).
T1 sequence (Q9NWZ3 1-460): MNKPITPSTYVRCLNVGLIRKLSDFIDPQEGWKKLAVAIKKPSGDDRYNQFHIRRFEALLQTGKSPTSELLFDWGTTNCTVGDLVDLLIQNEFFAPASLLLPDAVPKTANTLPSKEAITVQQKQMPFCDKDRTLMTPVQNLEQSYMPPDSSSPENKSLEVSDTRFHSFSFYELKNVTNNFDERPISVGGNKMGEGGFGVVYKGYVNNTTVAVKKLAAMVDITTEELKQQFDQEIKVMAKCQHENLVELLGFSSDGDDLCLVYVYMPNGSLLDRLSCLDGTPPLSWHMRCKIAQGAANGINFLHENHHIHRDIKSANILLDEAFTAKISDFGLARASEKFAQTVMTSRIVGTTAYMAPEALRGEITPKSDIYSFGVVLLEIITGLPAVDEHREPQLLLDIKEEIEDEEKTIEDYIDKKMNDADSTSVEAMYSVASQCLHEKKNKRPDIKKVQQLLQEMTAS
The experiment in a line: biochemical.
Settings: not given
As to `Cn1cccc(NC(=O)c2cn3cc(C45COC(C)(C4)C5)nc3cc2OC2CCC2)c1=O` [Example 424, 7-Cyclobutoxy-N-(1-methyl-2-oxo-1,2-dihydropyridin-3-yl)-2-(1-methyl-2-oxabicyclo[2.1.1]hexan-4-yl)imidazo[1,2-a]pyridine-6-carboxamide], 0.7 nM corresponded to half-maximal inhibition (IC50).

Turning to `CC12CCC(c3cn4cc(C(=O)Nc5cnc6cccnn56)c(OC5CCC5)cc4n3)(CO1)C2` (stereo not shown) [Example 649, 7-cyclobutoxy-N-(imidazo[1,2-b]pyridazin-3-yl)-2-(1-methyl-2-oxabicyclo[2.2.1]heptan-4-yl)imidazo[1,2-a]pyridine-6-carboxamide], the IC50 was determined as 0.2 nM.

The target of the next assay is T1, IRAK4. Put plainly: 2-hour 10 μM ATP Biochemical Assay (MesoScale Detection format; IRAK4 phosphorylation of biotin labeled IRAK1 activation loop peptide). Particulars: 0.1 nM IRAK4. The method, then: Compounds of the invention were assessed for their ability to inhibit IRAK4 activity. The inhibitory properties of the compounds of the invention described herein can be evidenced by testing in any one of the following assays.
The 2-hour 10 μM ATP Biochemical Assay employs a MesoScale Detection (MSD) format. The kinase reaction is based on the IRAK4 phosphorylation of a biotin labeled peptide (IRAK1 activation loop sequence 360-389).
The kinase reaction in 30 μl is carried out in wells of a 384 well polypropylene assay plate, with 0.1 nM IRAK4, 1.6 μM of biotinylated peptide substrate and 10 μM ATP in 50 mM Hepes, pH 7.5, 60 mM NaCl, 5 mM MgCl2, 0.25 mM MnCl2, 2 mM DTT, 0.01% BSA, and 1% DMSO (from compound DMSO stocks), for 2 hour at room temperature. The activity is quenched with 11 μl of 70 mM EDTA, pH 8.
To detect the phosphorylated biotinylated peptide substrate, 30 μl of the quenched reaction mixture is added to equivalent wells of a 384 well streptavidin coated MesoScale plate (Meso Scale Discovery #L21SA-1). After a 1 hour incubation of the plate for 1 hour at room temperature with gentle mixing, the plate wells are washed 3 times with 50 mM Tris, pH 7.5, 150 mM NaCl, 0.02% Tween-20.
A 25 μl volume of 1:500 anti-P-Threonine Rabbit polyclonal Antibody plus 1:500 Goat-anti-Rabbit Sulfo Tag Antibody (Meso Scale Discovery R32AB-1) in 50 mM Tris, pH 7.5, 150 mM NaCl, 0.02% Tween-20 plus 2% BSA is then added to each well. After a 1-hour incubation of the plate for 1 hour at room temperature with gentle mixing, the plate wells are washed, 3 times with 50 mM Tris, pH 7.5, 150 mM NaCl, 0.02% Tween-20. A 40 μl volume of 2× MSD Read Buffer (Meso Scale Discovery R92TC-1) is added to each well, and the plate is read immediately in an MSD Plate Reader (Meso Scale Discovery).
With `COc1cccc(NC(=O)c2cn3cc(C4(OC)CC4)nc3cc2OC)n1` [Example 14], the IC50 is 26 nM.

On to `COc1cccc(NC(=O)c2cn3cc(CC4COCCO4)nc3cc2OC)n1` (stereo not shown) [Example 15], for which the IC50 came to 31 nM.

Take `COc1cc2nc(C3CCOCC3)cn2cc1C(=O)Nc1cc(F)cc(F)c1` [Example 152]: the midpoint of inhibition, the IC50, lay at 23 nM.

Consider `COc1cc2nc(C3CCOC3)cn2cc1C(=O)Nc1cccc(C(F)(F)F)n1` (stereo not shown) [Example 35], for which the IC50 came to 12 nM.

For the molecule `COc1cc2nc(C3CCOCC3)cn2cc1C(=O)NC1CCCC(F)C1` (stereo not shown) [Example 139], the IC50 is 725 nM.

As to `COc1cc2nc(C3CCOCC3)cn2cc1C(=O)Nc1cccc(OC)c1C` [Example 160], the IC50 came out at 70 nM.

In turn, `COc1cc2nc(C3CCOCC3)cn2cc1C(=O)Nc1cccnc1C` [Example 131] returned an IC50 of 25 nM.

In the case of `COc1cc2nc(C3CCOCC3)cn2cc1C(=O)Nc1nc(C)c(Cl)s1` [Example 171], it took 845 nM to reach half-maximal inhibition (IC50).

As for `CCc1ncc(F)cc1NC(=O)c1cn2cc(C3CCOCC3)nc2cc1OC` [Example 128], 67 nM corresponded to half-maximal inhibition (IC50).

With `COc1cc(C(=O)Nc2cccc(C(F)(F)F)n2)cn2cc(C3CCOCC3)nc12` [Example 75], the IC50 is 6 nM.

Molecule `COc1cc2nc(C3CCOCC3)cn2cc1C(=O)NC1CCCC2(CC2)C1` (stereo not shown) [Example 126] yielded an IC50 of 660 nM.

As for `COc1cccc(NC(=O)c2cn3cc(C4CC5CCC(C4)O5)nc3cc2OC)n1` (stereo not shown) [Example 18], the IC50 is 1 nM.

`COc1cc2nc(C3CCOCC3)cn2cc1C(=O)Nc1ccccc1CC(C)C` [Example 140] returned an IC50 of 822 nM.

Molecule `COc1cc2nc(C3CCOCC3)cn2cc1C(=O)Nc1cc(F)cc(Cl)c1` [Example 172] returned an IC50 of 21 nM.

Take `COc1cc2nc(C3CCOCC3)cn2cc1C(=O)NC1CC(C)C1` (stereo not shown) [Example 134]: half-maximal inhibition (IC50) was put at 632 nM.

The molecule `COc1cc2nc(C3CCOCC3)cn2cc1C(=O)Nc1ccc(F)c(F)c1C` [Example 181] gave an IC50 of 169 nM.

With `COc1cc2nc(C3CCOCC3)cn2cc1C(=O)NC1CC(OC)c2ccccc21` (stereo not shown) [Example 136], the IC50 came to 944 nM.

`CCc1ccccc1NC(=O)c1cn2cc(C3CCOCC3)nc2cc1OC` [Example 167] showed an IC50 of 73 nM.

`COc1cc2nc(C3CCOCC3)cn2cc1C(=O)Nc1cc(F)c(F)c(F)c1` [Example 137] had an IC50 of 132 nM.

With `COc1cc2nc(C3CCOCC3)cn2cc1C(=O)Nc1ccns1` [Example 156], the IC50 was found to be 147 nM.

Turning to `O=C(Nc1ccn(C(F)F)n1)c1ccc2nc(C3CCOCC3)cn2c1` [Example 49], the IC50 worked out at 350 nM.

Consider `COc1cccc(NC(=O)c2cn3cc(C45CC(C(F)F)(C4)C5)nc3cc2OC)n1` [Example 20], for which the IC50 turned out to be 3 nM.

Molecule `COc1cc2nc(C3CCOCC3)cn2cc1C(=O)Nc1cccc(C2CC2)c1` [Example 163] had an IC50 of 688 nM.

Molecule `COc1cccc(NC(=O)c2cn3cc(C4CCOCC4)nc3cc2OC)c1` [Example 157] gave an IC50 of 21 nM.

Consider `COc1cc2nc(CC(C)C#N)cn2cc1C(=O)Nc1cccc(C(F)(F)F)n1` (stereo not shown) [Example 42], for which the IC50 was 31 nM.

Consider `COc1cc2nc(C3CCOCC3)cn2cc1C(=O)Nc1ccc(F)c(C(F)F)c1` [Example 159], for which the IC50 was 20 nM.

Consider `COc1cc2nc(C3CCOCC3)cn2cc1C(=O)NC1CCCC2C1C2(F)F` (stereo not shown) [Example 117], for which inhibition was half-maximal at 567 nM (IC50).

Consider `COc1cc2nc(C3CCOCC3)cn2cc1C(=O)Nc1cc(C)cc(F)c1` [Example 176], for which the midpoint of inhibition, the IC50, lay at 30 nM.

As to `COc1cc2nc(C3CCOCC3)cn2cc1C(=O)Nc1cc(F)ccc1OC(C)C` [Example 106], the IC50 stood at 80 nM.

For the molecule `COc1cc2nc(C3CCOCC3)cn2cc1C(=O)N[C@@H]1CCC[C@H](C2CC2)C1` (relative stereo) [Example 177], the IC50 came to 861 nM.

In turn, `COc1cc2nc(C3CCOCC3)cn2cc1C(=O)Nc1cc(F)c(F)c(C(F)F)c1` [Example 164] returned an IC50 of 37 nM.

The molecule `COc1cc2nc(C3CCOCC3)cn2cc1C(=O)N[C@@]12CCC[C@@H]1C2` (racemic) [Example 149] returned an IC50 of 794 nM.

In the case of `COc1cc2nc(C3CCOCC3)cn2cc1C(=O)Nc1cc(F)ccn1` [Example 132], the IC50 was determined as 34 nM.

As to `COc1cc2nc(C3CCOCC3)cn2cc1C(=O)Nc1cc(C)cc(C)c1` [Example 178], the IC50 worked out at 305 nM.

On to `COc1cc2nc(C3CCOCC3)cn2cc1C(=O)N[C@@H]1C[C@H]1C1CCC1` (racemic) [Example 154], for which the IC50 was found to be 412 nM.

Consider `COc1cccc(NC(=O)c2cn3cc(C4CC45CCOC5)nc3cc2OC)n1` (stereo not shown) [Example 16], for which half-maximal inhibition (IC50) required 8 nM.

Turning to `COc1cccc(NC(=O)c2cn3cc(C4CCOC4)nc3cc2OC)n1` (stereo not shown) [Example 23], the IC50 is 25 nM.

Molecule `COc1cc2nc(C3CC34CCOC4)cn2cc1C(=O)Nc1cccc(C(F)(F)F)n1` (stereo not shown) [Example 39] came in with an IC50 of 24 nM.

The molecule `COc1cc2nc(C3CCOCC3)cn2cc1C(=O)Nc1cc(F)cc(F)c1F` [Example 120] returned an IC50 of 18 nM.

`COc1cc(C(=O)Nc2cccc(C(F)(F)F)n2)cn2cc(CC3CCOC3)nc12` (stereo not shown) [Example 72]: the IC50 was found to be 8 nM.

Regarding `COc1cc2nc(C3CCOCC3)cn2cc1C(=O)N[C@H]1CC[C@@H](OC)CC1` [Example 161], half-maximal inhibition (IC50) was put at 346 nM.

Molecule `COc1cc2nc(C3CCOCC3)cn2cc1C(=O)Nc1cccc2c1CCOC2` [Example 180] gave an IC50 of 19 nM.

The molecule `COc1cc2nc(C3CCOCC3)cn2cc1C(=O)Nc1cccnc1C1CC1` [Example 148] returned an IC50 of 87 nM.

Take `COc1cc2nc(C3CCOCC3)cn2cc1C(=O)Nc1cc(Cl)c(F)c(Cl)c1` [Example 119]: the IC50 was found to be 792 nM.

Regarding `COc1cc2nc(C3CCOCC3)cn2cc1C(=O)NC1CCCC(C)C1C` (stereo not shown) [Example 175], it took 744 nM to reach half-maximal inhibition (IC50).

In the case of `COc1cc2nc(C(C)(C)CC#N)cn2cc1C(=O)Nc1cccc(C(F)(F)F)n1` [Example 46], half-maximal inhibition (IC50) was put at 37 nM.

In turn, `COc1cc2nc(C3CCOCC3)cn2cc1C(=O)N[C@@H]1COC[C@H]1F` (racemic) [Example 123] displayed an IC50 of 741 nM.

`COc1cc2nc(C3(OC)CC3)cn2cc1C(=O)Nc1cccc(C(F)(F)F)n1` [Example 34] gave an IC50 of 57 nM.

On to `COc1cc(C(=O)Nc2cccc(C(F)F)n2)cn2cc(C3(OC)CC3)nc12` [Example 91, N-(6-(difluoromethyl)pyridin-2-yl)-8-methoxy-2-(1-methoxycyclopropyl)imidazo[1,2-a]pyridine-6-carboxamide], for which inhibition was half-maximal at 79 nM (IC50).

On to `COc1cc2nc(C3CCOCC3)cn2cc1C(=O)Nc1scnc1C(C)C` [Example 150], for which half-maximal inhibition (IC50) was put at 23 nM.

Molecule `COc1cc2nc(C3CCOCC3)cn2cc1C(=O)Nc1cccc2c1C1CCC2O1` (stereo not shown) [Example 130] came in with an IC50 of 140 nM.

Take `COc1cc2nc(C3CCOCC3)cn2cc1C(=O)Nc1cccc(F)c1C` [Example 129]: the IC50 was determined as 16 nM.

The assay is the same for the next values; noted with them: read-out: IRAK4 Biochemical Assay (10 μM ATP, 2 h) IC50, 0.1 nM IRAK4.
For the molecule `COc1cccc(NC(=O)c2cn3cc(C[C@H]4CCOC4)nc3cc2OC)n1` [Example 50, (S)-7-methoxy-N-(6-methoxypyridin-2-yl)-2-((tetrahydrofuran-3-yl)methyl)imidazo[1,2-a]pyridine-6-carboxamide], the IC50 came out at 3 nM.

(Values after patent US20230087118A1, “IMIDAZO[1,2-a][sequence] DERIVATIVES AND THEIR USE IN THE TREATMENT OF DISEASE” (priority 2019, published 2023).)
